Test results from publication PMC10501326, “A Phase I Study of the Pan-Notch Inhibitor CB-103 for Patients with Advanced Adenoid Cystic Carcinoma and Other Tumors” (Cancer Research Communications, 2023).
Where “and” joins values, the source holds several entries; their conditions need not be identical. Equal entries are not always repeated. Entries after “also recorded” stand apart in the source; their conditions may differ. Where two headings read alike, the source gives them in different places.

How the values were obtained:
[1] = Plasma pharmacokinetics (LC/MS-MS); assay type: in vivo, human; settings: for half-life: SD, read-out: Plasma elimination half-life (t1/2) (converted)
Experimental: Plasma pharmacokinetics were assessed for CB-103 via blood samples taken on days 1 (predose, 0.5, 1, 2, 4, 6, 8 hours postdose ± 5 minutes, and 12 hours postdose ± 15 minutes), 2 (24-hour post-day 1, predose), 3 (predose), 8 (predose, 0.5, 1, 2, 4, 6, and 8 hour postdose ± 5 minutes), 9 (24-hour post-day 8, predose), 15, and 22 (predose, and 1 hour postdose) in cycle 1. In cycle 2, on day 1 (predose, 0.5, 1, 2, 6, and, 8 hours postdose ± 5 minutes) and 15 (predose); in cycles 3–6 once at each visit (predose or postdose). For a twice daily dose schedule, pharmacokinetic timepoints were adjusted to evaluate concentration-versus-time curves after morning and evening doses on days 1 and 8.
CB-103 concentrations were determined by validated high-performance LC/MS-MS method and analyzed descriptively using Phoenix WinNonlin v6.3 (Pharsight Corporation). Data at timepoints collected were used to generate a population pharmacokinetic model to estimate AUC and Cmax to associate with safety and efficacy.

HEY1 = assay: Peripheral whole blood Notch target gene expression (Nanostring); assay type: in vivo, human; settings: twice daily dosing, vs baseline
Text: (§1) Archival tumor tissue (not older than 6 months prior to screening) or fresh tumor biopsy was required to characterize Notch alteration status by targeted genomic sequencing and/or NICD1 expression (via IHC) among the confirmatory cohort at baseline. Repeat biopsy on cycle 2 day 15 and at disease progression was optional. Serial whole blood samples (and/or bone marrow samples and saliva among patients with T-ALL/T-LBL) were obtained on day 1 of cycles 1–6 to evaluate the dynamics of Notch gene expression. Peripheral blood was collected with PaxGene tubes and frozen at −20°C until processing. RNA was extracted (Qiagen RNeasy Micro kit) from peripheral whole blood and analyzed by Nanostring with percent change in expression levels reported with respect to baseline normalized values.

IL7R alpha = assay: as above; assay type: in vivo, human; settings: twice daily dosing, vs baseline
Text: as §1

NOTCH 2 = assay: as above; assay type: in vivo, human; settings: twice daily dosing, vs baseline
Text: as §1

NOTCH1 = assay: as above; assay type: in vivo, human; settings: twice daily dosing, vs baseline
Text: as §1

NOTCH4 = assay: as above; assay type: in vivo, human; settings: twice daily dosing, vs baseline
Text: as §1

[2] = system: Notch target genes (HEY1, IL7R alpha, NOTCH1, 2 and 4); assay: Peripheral Notch target gene expression versus exposure (gene panel, in words); assay type: in vivo, human; settings: patients with ACC on twice daily dosing (n = 13); up to 1,000 mg (500 mg twice daily)
Text: as §1
Percent change (%) in peripheral blood cell Notch target gene expression was monitored among a subset of patients with ACC receiving twice daily dosing (n = 13).

[3] = parameters: method as in PMID 32601208; settings: single agent and in combination with targeted and cytotoxic therapies; cited from earlier work
[4] = individual patient, total dose 800 mg
[5] = individual patients, total dose 500 mg
[6] = individual patients, total dose 600 mg
[7] = individual patients, total dose 1000 mg

CC(C)(C)c1ccc(Oc2ccc(N)cn2)cc1 [CB-103]
Cmax ([1]; human, plasma, oral, 500 mg, Cohort 12 (500 mg BID 5/2), Cycle 1, Day 1, read-out: Mean Cmax): 2390 ng/mL | AUC ([1]; human, plasma, oral, 500 mg, Cohort 12 (500 mg BID 5/2), Cycle 1, Day 8, read-out: Mean AUC24): 18600 ng·h/mL | Cmax ([1]; human, plasma, oral, 500 mg, Cohort 12 (500 mg BID 5/2), Cycle 1, Day 8, read-out: Mean Cmax): 2760 ng/mL | Cmax ([1]; human, plasma, oral, 500 mg, individual patients, total dose 500 mg, twice daily dosing, read-out: Cmax): 1230 ng/mL | AUC ([1]; human, plasma, oral, 522 mg, Cohort 8 (522 mg), Cycle 1, Day 1, read-out: Mean AUC24): 5910 ng·h/mL | Cmax ([1]; human, plasma, oral, 522 mg, Cohort 8 (522 mg), Cycle 1, Day 1, read-out: Mean Cmax): 1230 ng/mL | AUC ([1]; human, plasma, oral, 522 mg, Cohort 8 (522 mg), Cycle 1, Day 8, read-out: Mean AUC24): 13500 ng·h/mL | Cmax ([1]; human, plasma, oral, 522 mg, Cohort 8 (522 mg), Cycle 1, Day 8, read-out: Mean Cmax): 1740 ng/mL | Cmax ([1]; human, plasma, oral, 800 mg, individual patient, total dose 800 mg, twice daily dosing, read-out: Cmax): 1730 ng/mL | half-life ([1]; human, plasma, oral, cycle 1 day 1, 8.5): 16.5 h | Cmax ([1]; human, plasma, oral, cycle 1 day 1, entire sampled cohort, read-out: Mean Cmax): 731 ng/mL | half-life ([1]; human, plasma, oral, cycle 1 day 8, 42.6): 37.7 h | AUC ([1]; human, plasma, oral, entire sampled cohort, read-out: Mean AUC from 0 to 24): 3160 ng·h/mL | Tmax ([1]; human, plasma, oral, day 1 of cycle 1, dose-escalation cohorts 1 through 8, read-out: Peak (tmax)): 0.5 to 2 h | Cmax ([1]; individual patients, total dose 500 mg, twice daily dosing, read-out: Cmax): 1800 ng/mL | Cmax ([1]; individual patients, total dose 600 mg, twice daily dosing): 638 ng·h/mL and 2100 ng·h/mL and 1280 ng·h/mL and 1220 ng·h/mL and 1710 ng·h/mL | Cmax ([1]; individual patients, total dose 1000 mg, twice daily dosing): 4420 ng·h/mL and 2580 ng·h/mL and 3760 ng·h/mL and 2410 ng·h/mL and 1240 ng·h/mL | HEY1 percent change in peripheral expression (HEY1; [4]): 52.3% | HEY1 percent change in peripheral expression (HEY1; [5]): -52.0% | HEY1 percent change in peripheral expression (HEY1; [6]): 5.0% and -36.1% and 30.3% and -25.6% | HEY1 percent change in peripheral expression (HEY1; [7]): 11.7% and -71.3% and -75.9% and -55.2% and -57.8% | IL7R alpha percent change in peripheral expression (IL7R alpha; [4]): -29.7% | IL7R alpha percent change in peripheral expression (IL7R alpha; [5]): 32.3% and 33.5% | IL7R alpha percent change in peripheral expression (IL7R alpha; [6]): 58.3% and -58.0% and -24.8% and -2.9% and -29.3% | IL7R alpha percent change in peripheral expression (IL7R alpha; [7]): -53.6% and 3.5% and -16.2% and 0.2% and -41.7% | NOTCH 2 percent change in peripheral expression (NOTCH 2; [4]): -9.4% | NOTCH 2 percent change in peripheral expression (NOTCH 2; [5]): 19.9% and -9.6% | NOTCH 2 percent change in peripheral expression (NOTCH 2; [6]): -25.2% and -38.4% and -5.5% and -14.8% and -41.1% | NOTCH 2 percent change in peripheral expression (NOTCH 2; [7]): -31.8% and -14.2% and -39.3% and -15.2% and 5.1% | NOTCH1 percent change in peripheral expression (NOTCH1; [4]): -15.5% | NOTCH1 percent change in peripheral expression (NOTCH1; [5]): 39.2% and -7.1% | NOTCH1 percent change in peripheral expression (NOTCH1; [6]): -28.1% and -41.2% and -35.7% and -14.2% and -39.7% | NOTCH1 percent change in peripheral expression (NOTCH1; [7]): -8.7% and -0.1% and -58.3% and -20.2% and -13.3% | NOTCH4 percent change in peripheral expression (NOTCH4; [4]): -3.5% | NOTCH4 percent change in peripheral expression (NOTCH4; [5]): 37.6% and -16.9% | NOTCH4 percent change in peripheral expression (NOTCH4; [6]): 34.0% and -49.7% and -7.9% and 11.5% and 32.9% | NOTCH4 percent change in peripheral expression (NOTCH4; [7]): -20.8% and -40.4% and 22.0% and 4.5% and 29.7% | Peripherally measured Notch target gene expression levels versus exposure/dose [2]: downregulation; also recorded: declined with increasing exposure | Anticancer activity [3]: potent anticancer activity
